Data taken from article PMC12526212, “Novel Isolongifolenone-Based Caprolactam Derivatives as Potential Anticancer Agents via the p53/mTOR/Autophagy Pathway” (Molecules, 2025).

Test system: MCF-7 cells
Assay: Western blotting of autophagy, AMPK-mTOR and apoptosis proteins
Format: cell-based, human
Experimental: MCF-7 exponentially growing cells were plated in 6-well plates (2 × 10^5 cells/well). Then, derivatives E10 (0.5, 1.0 and 2.0 μM) were added to the well. After incubation for an additional 48 h, the cell culture medium was removed, and the cells were washed twice with ice-cold PBS. Subsequently, the cells were lysed to extract the total protein and centrifuged at 12,000 rpm for 5 min at 4 °C using lysis buffer (Beyotime, Shanghai, China, Cat. # P0013E). All protein concentrations were determined using a BCA kit. Equal amounts of protein (20–30 µg per lane) were loaded onto the gel. An equal amount of protein was analyzed using 12% SDS-PAGE gels and transferred to Hybond-P membrane containing polyvinylidene difluoride (PVDF). The membranes were then blocked with BSA for 2 h at room temperature and incubated with primary antibodies against p-mTOR (ImmunoWay Biotechnology, Beijing, China, YP1444, 1:5000), P62 (Proteintech Group, Inc., Wuhan, China, 60268-1-IG, 1:5000), LC3-I/II (Proteintech Group, Inc., Wuhan, China, 10253-2-AP, 1:5000) and p-AMPK, AMPK, Bcl-2, Bax, Cleaved-caspase 7 (ImmunoWay Biotechnology, Beijing, China, YP0251, 1:5000) overnight at 4 °C and with secondary antibodies (AP-conjugated goat anti-rabbit or anti-mouse, 1:10,000) for 2 h. Densitometry was performed in ImageJ 2 within the linear range. Targets were normalized to β-actin (or to the corresponding total protein for phospho-target), then expressed relative to vehicle (0.1% DMSO = 1.0). Where indicated, ratios such as LC3-II/LC3-I and Bax/Bcl-2 were calculated per lane before statistics.

Which results are given for `CC1(C)C2=CC(=O)N(C(=O)C=Cc3cccc(C(F)(F)F)c3)CC(C)(C)C23CCC1C3` (stereo not drawn) [E10, 5,5,9,9-Tetramethyl-3-(3-(3-(trifluoromethyl)phenyl)acryloyl)-4,5,6,7,8,9-hexahydro-5a,8-methanobenzo[d]azepin-2(3H)-one]?
AMPK phosphorylation levels (E10 0.5, 1.0, 2.0 μM): increased; mTOR phosphorylation levels (E10 0.5, 1.0, 2.0 μM): strongly decreased; p62 expression (E10 0.5, 1.0, 2.0 μM): decrease; LC3-I and LC3-II expression levels (after E10 treatment): up-regulated; Bax expression (compared with control): higher levels; Bcl-2 expression (compared with control): down-regulated; cleaved caspase-7 expression (dose-dependent): dramatically up-regulated; p53 expression (dose-dependent): dramatically up-regulated; ratio of LC3-II/LC3-I (increasing concentrations of E10 (0.5, 1.0, 2.0 μM)): increased gradually
